Experimental data from ChEMBL document CHEMBL4321836, “Discovery of BAY-298 and BAY-899: Tetrahydro-1,6-naphthyridine-Based, Potent, and Selective Antagonists of the Luteinizing Hormone Receptor Which Reduce Sex Hormone Levels in Vivo” (J Med Chem, 2019).

Tests used:
[1] = Fraction unbound in female rat at 4.5 to 72 mg/kg, po administered once daily for 8 days; assay type: ADME, organism-based; conditions: in vivo
[2] = target: T1, Lutropin-choriogonadotropic hormone receptor (Homo sapiens, UniProt P22888); test: (§1) Negative allosteric modulation of human luteinizing hormone receptor assessed as reduction in Org 43553-induced agonist activity preincubated for 20 mins followed by 100 times EC80 of agonist addition and measured after 60 mins by cell based TR-FRET assay relative to control
[3] = target: T1, Lutropin-choriogonadotropic hormone receptor; test: as §1, with “glycoprotein human luteinizing hormone-induced” for “Org 43553-induced”, “1” for “100”
Rattus norvegicus [4] = test: Downregulation of estradiol level in po dosed proestrus staged-female rat serum administered once daily for 8 days and measured by radioimmunoassay method; assay type: functional, organism-based
[5] = target: T1, Lutropin-choriogonadotropic hormone receptor; test: (§2) Negative allosteric modulation of human luteinizing hormone receptor assessed as Emax for Org 43553-induced agonist activity at 0.84 nM to 17 uM preincubated for 20 mins followed by 16 times EC80 of agonist addition and measured after 60 mins by cell based TR-FRET assay relative to control; conditions: at 0.00084 to 17 µM
Rattus norvegicus [6] = test: Downregulation of human luteinizing hormone-induced progesterone expression in plasma of cetrorelix-treated female rat at 27 mg/kg, iv after 2 hrs by radioimmunoassay method (reference value: 243 nM); assay type: functional
Rattus norvegicus [7] = test: Downregulation of estradiol level in proestrus staged-female rat serum at 4.5 mg/kg, po administered once daily for 8 days and measured by radioimmunoassay method (reference value: 125 pmol/L); assay type: functional
Rattus norvegicus [8] = test: Downregulation of human luteinizing hormone-induced COX-2 mRNA expression in cetrorelix-treated iv dosed female rat after 2 hrs by Taqman probe based RT-PCR analysis; assay type: functional, organism-based
Rattus norvegicus [9] = test: Effect on folliculo-genesis in 4 day cycle of po dosed normally cycling female rat assessed as induction of cycle arrest in metestrus stage by observing vaginal smears administered once daily for 8 days and measured for 2 cycle-stage; assay type: functional, organism-based
Rattus norvegicus [10] = test: Downregulation of human luteinizing hormone-induced progesterone expression in plasma of cetrorelix-treated female rat at 14 mg/kg, iv after 2 hrs by radioimmunoassay method (reference value: 243 nM); assay type: functional
Rattus norvegicus [11] = test: Downregulation of human luteinizing hormone-induced Egr-1 mRNA expression in cetrorelix-treated iv dosed female rat after 2 hrs by Taqman probe based RT-PCR analysis; assay type: functional, organism-based
[12] = target: T1, Lutropin-choriogonadotropic hormone receptor; test: as §2, with “glycoprotein human luteinizing hormone-induced” for “Org 43553-induced”, “100” for “16”
[13] = target: T1, Lutropin-choriogonadotropic hormone receptor; test: (§3) Negative allosteric modulation of human luteinizing hormone receptor assessed as reduction in Org 43553-induced agonist activity preincubated for 20 mins followed by 4 times EC80 of agonist addition and measured after 60 mins by cell based TR-FRET assay relative to control
[14] = Plasma concentration in female rat at 4.5 to 72 mg/kg, po administered once daily for 8 days and measured on day 8; assay type: ADME, organism-based
Rattus norvegicus [15] = test: Downregulation of estradiol level in proestrus staged-female rat serum at 72 mg/kg, po administered once daily for 8 days and measured by radioimmunoassay method (reference value: 125 pmol/L); assay type: functional
[16] = target: T1, Lutropin-choriogonadotropic hormone receptor; test: Negative allosteric modulation of human luteinizing hormone receptor assessed as Emax for Org 43553-induced agonist activity at 0.84 nM to 17 uM preincubated for 20 mins followed by 100 times EC80 of agonist addition and measured after 60 mins by cell based TR-FRET assay relative to control
[17] = target: T1, Lutropin-choriogonadotropic hormone receptor; test: as §3, with “glycoprotein human luteinizing hormone-induced” for “Org 43553-induced”
[18] = target: Luteinizing hormone/choriogondaotropin receptor (Macaca fascicularis, UniProt F5A8F7); test: Antagonist activity at cynomolgus monkey luteinizing hormone receptor expressed in HEK293 cells assessed as reduction in agonist-induced cAMP production preincubated for 30 mins followed by agonist solution addition and measured after 30 mins by cell based TR-FRET assay
[19] = target: T1, Lutropin-choriogonadotropic hormone receptor; test: as §2, with “glycoprotein human luteinizing hormone-induced” for “Org 43553-induced”, “1” for “16”
Rattus norvegicus [20] = test: Downregulation of estradiol level in proestrus staged-female rat serum at 9 mg/kg, po administered once daily for 8 days and measured by radioimmunoassay method (reference value: 125 pmol/L); assay type: functional
Rattus norvegicus [21] = test: Effect on folliculo-genesis in 4 day cycle of po dosed normally cycling female rat assessed as induction of cycle arrest in diestrus stage by observing vaginal smears administered once daily for 8 days; assay type: functional, organism-based
Rattus norvegicus [22] = test: Downregulation of estradiol level in proestrus staged-female rat serum at 36 mg/kg, po administered once daily for 8 days and measured by radioimmunoassay method (reference value: 125 pmol/L); assay type: functional
[23] = target: T1, Lutropin-choriogonadotropic hormone receptor; test: Negative allosteric modulation of human luteinizing hormone receptor assessed as reduction in Org 43553-induced agonist activity preincubated for 20 mins followed by 16 times EC80 of agonist addition and measured after 60 mins by cell based TR-FRET assay relative to control
Rattus norvegicus [24] = test: Downregulation of 0.1 ug human luteinizing hormone-induced testosterone expression in plasma of cetrorelix-treated male rat at 14 mg/kg, iv after 2 hrs by radioimmunoassay method (reference value: 33.4 nM); assay type: functional
[25] = target: T1, Lutropin-choriogonadotropic hormone receptor; test: Negative allosteric modulation of human luteinizing hormone receptor assessed as Emax for Org 43553-induced agonist activity at 0.84 nM to 17 uM preincubated for 20 mins followed by 4 times EC80 of agonist addition and measured after 60 mins by cell based TR-FRET assay relative to control
[26] = Dose normalized Cmax in Wistar rat at 0.5 mg/kg, iv after 2 to 72 hrs by LC-MS/MS analysis; assay type: ADME, organism-based; conditions: in vivo
[27] = target: T1, Lutropin-choriogonadotropic hormone receptor; test: Negative allosteric modulation of human luteinizing hormone receptor assessed as reduction in Org 43553-induced agonist activity preincubated for 20 mins followed by 1 times EC80 of agonist addition and measured after 60 mins by cell based TR-FRET assay relative to control
[28] = target: T1, Lutropin-choriogonadotropic hormone receptor; test: Negative allosteric modulation of human luteinizing hormone receptor assessed as reduction in Org 43553-induced agonist activity preincubated for 20 mins followed by 10 times EC80 of agonist addition and measured after 60 mins by cell based TR-FRET assay relative to control
[29] = target: T1, Lutropin-choriogonadotropic hormone receptor; test: as §2, with “glycoprotein human luteinizing hormone-induced” for “Org 43553-induced”, “10” for “16”
[30] = target: T1, Lutropin-choriogonadotropic hormone receptor; test: Negative allosteric modulation of human luteinizing hormone receptor assessed as Emax for Org 43553-induced agonist activity at 0.84 nM to 17 uM preincubated for 20 mins followed by 1 times EC80 of agonist addition and measured after 60 mins by cell based TR-FRET assay relative to control
Rattus norvegicus [31] = test: Downregulation of 0.3 ug human luteinizing hormone-induced testosterone expression in plasma of cetrorelix-treated male rat at 14 mg/kg, iv after 2 hrs by radioimmunoassay method (reference value: 33.4 nM); assay type: functional
[32] = target: T1, Lutropin-choriogonadotropic hormone receptor; test: as §1, with “glycoprotein human luteinizing hormone-induced” for “Org 43553-induced”

T1 sequence (P22888 whole entry): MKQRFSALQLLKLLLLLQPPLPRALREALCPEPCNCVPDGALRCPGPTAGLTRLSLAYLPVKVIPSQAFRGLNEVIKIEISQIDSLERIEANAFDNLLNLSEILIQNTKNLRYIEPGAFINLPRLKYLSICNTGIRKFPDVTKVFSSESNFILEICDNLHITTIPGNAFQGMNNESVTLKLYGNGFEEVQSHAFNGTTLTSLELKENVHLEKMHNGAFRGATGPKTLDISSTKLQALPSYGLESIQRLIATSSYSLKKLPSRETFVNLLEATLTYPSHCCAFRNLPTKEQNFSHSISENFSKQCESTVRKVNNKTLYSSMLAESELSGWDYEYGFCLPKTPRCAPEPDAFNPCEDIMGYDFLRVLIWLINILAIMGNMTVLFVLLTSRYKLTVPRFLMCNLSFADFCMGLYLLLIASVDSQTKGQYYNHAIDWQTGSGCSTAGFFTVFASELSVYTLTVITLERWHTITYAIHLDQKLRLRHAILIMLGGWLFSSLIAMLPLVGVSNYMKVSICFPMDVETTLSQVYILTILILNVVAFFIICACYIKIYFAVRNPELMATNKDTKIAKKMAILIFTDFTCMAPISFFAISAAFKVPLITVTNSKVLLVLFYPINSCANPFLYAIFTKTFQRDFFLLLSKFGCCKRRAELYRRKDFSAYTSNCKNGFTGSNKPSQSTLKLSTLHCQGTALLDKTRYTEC
Chain of Luteinizing hormone/choriogondaotropin receptor (F5A8F7 whole entry): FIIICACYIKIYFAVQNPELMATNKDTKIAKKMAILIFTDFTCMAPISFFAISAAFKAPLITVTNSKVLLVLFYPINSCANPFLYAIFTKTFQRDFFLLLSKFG

Question: Which fraction unbound at 192 h [1] does the source give for O=C(Nc1ccc(Oc2ccc(F)cc2)cc1)N1CCc2ncccc2[C@@H]1c1ccc(Cl)cc1 here?
Answer: 0.0024

Question: And the IC50 [2]?
Answer: 1500 nM

Question: What about the IC50 [3] of the same molecule?
Answer: 97 nM

Question: What about the Activity (Rattus norvegicus [4]) of the same molecule?
Answer: Dose-dependent effect

Question: What about the Emax [5] of the same molecule?
Answer: 102%

Question: What about the Activity (Rattus norvegicus [6]) of the same molecule?
Answer: 50 nM

Question: And the Activity (Rattus norvegicus [7])?
Answer: 118 pmol/L

Question: And the Activity (Rattus norvegicus [8])?
Answer: Dose-dependent effect

Question: And the Activity (Rattus norvegicus [9])?
Answer: Dose-dependent effect

Question: What about the Activity (Rattus norvegicus [10]) of the same molecule?
Answer: 51 nM

Question: What about the Activity (Rattus norvegicus [11]) of the same molecule?
Answer: Dose-dependent effect

Question: What about the Emax [12] of the same molecule?
Answer: 98%

Question: And the IC50 [13]?
Answer: 1200 nM

Question: What about the concentration at 192 h [14] of the same molecule?
Answer: 4 to 39 µM

Question: What about the Activity (Rattus norvegicus [15]) of the same molecule?
Answer: <39 pmol/L

Question: And the Emax [16]?
Answer: 93%

Question: What about the IC50 [17] of the same molecule?
Answer: 200 nM

Question: What about the IC50 [18] of the same molecule?
Answer: 78 nM

Question: And the Emax [19]?
Answer: 99%

Question: What about the Activity (Rattus norvegicus [20]) of the same molecule?
Answer: 80 pmol/L

Question: And the Activity (Rattus norvegicus [21])?
Answer: Dose-dependent effect

Question: What about the Activity (Rattus norvegicus [22]) of the same molecule?
Answer: 48 pmol/L

Question: And the IC50 [23]?
Answer: 1700 nM

Question: What about the Activity (Rattus norvegicus [24]) of the same molecule?
Answer: 2.5 nM

Question: And the Emax [25]?
Answer: 102%

Question: And the Cmax/dose [26]?
Answer: 0.97 kg/L

Question: What about the IC50 [27] of the same molecule?
Answer: 650 nM

Question: What about the IC50 [28] of the same molecule?
Answer: 1500 nM

Question: And the Emax [29]?
Answer: 106%

Question: And the Emax [30]?
Answer: 104%

Question: And the Activity (Rattus norvegicus [31])?
Answer: 12.6 nM

Question: And the IC50 [32]?
Answer: 2500 nM

Question: For O=C(Nc1cnc(Oc2ccc(F)cc2)nc1)N1CCc2ncccc2[C@@H]1c1ccc(F)cc1 [BAY-899], which Cmax/dose [26] is on record?
Answer: 0.28 kg/L
